Measured values from a melting point compilation (Tetko et al.; mined from patent text by program, amines drawn as free bases though some values may be those of a salt).

Row | SMILES | melting point [°C]
1 | COCc1ccc([C@H]2CC[C@H]([C@H]3CC[C@H](C=O)CC3)CC2)cc1F | 52 to 54
2 | CONC(=O)Nc1ccc(-c2sc3c(c2CCl)c(=O)n(-c2ccccc2)c(=O)n3Cc2c(F)cccc2F)cc1 | 217 to 219
3 | O=C(CC1c2ccc(-c3ccccc3)cc2S(=O)(=O)N1c1ccccc1)NO (stereo not given) | 191 to 193
4 | CN1CC(OC(=O)c2ccccc2)N(N2CC=C(C(C)(C)C)O2)C1=O (stereo not given) | 165 to 166
5 | OC(CBr)C(O)C(O)C(O)CBr (stereo not given) | 183 to 185
6 | O=C1NC(=O)C(S(=O)(=O)c2cccc3c(Br)cccc23)S1 (stereo not given) | 189 to 190
7 | CCOC(=O)Cc1sc(Sc2cc(C(F)(F)F)ccn2)nc1C | 57 to 59
8 | CN1CCN(c2ccc(Nc3cc(-c4cccc(N5Cc6cc(C(C)(C)C)ccc6C5=O)c4CO)cn(C)c3=O)nn2)CC1 | 171 to 172
9 | COC(=O)c1ccc(Cl)cc1NC(=O)CSc1ccc(NC(=O)Cc2ccccc2)cc1 | 144 to 146
10 | CCC[C@H]1C=C(C(=O)OCC)OC(=O)[C@H]1Cc1ccccc1 | 77 to 81
11 | COc1ccc(-c2cc(SC)sc2-c2ccc(OC)cc2)cc1 | 106 to 108
12 | NCC1Cc2cc(Cl)cc(-c3ccc(F)c(F)c3)c2O1 (stereo not given) | > 250
13 | Cc1nc(N)c2nc(C)n(NC(C)C)c2c1C | 203 to 205
14 | Nc1ccc(OCOc2ccc(N)cc2[N+](=O)[O-])c([N+](=O)[O-])c1 | 181
15 | COC(=O)Cc1c(C)nn(-c2ccccc2)c1C | 63 to 64
16 | CN(C)c1ccc(NC(=O)N(Cc2ccccc2)C[C@H]2CCC[C@H](CN(Cc3ccccc3)C(=O)Nc3ccc(N(C)C)cc3)C2)cc1 (relative stereo) | 129 to 133
17 | CC(C)(C)OC(=O)COc1coc(CO)cc1=O | 90 to 92

Row | SMILES | melting point [°C]
18 | COc1cc(C2CCN(C(=O)OC(C)(C)C)CC2)cnc1COc1ccc(S(C)(=O)=O)cc1 | 153 to 154
19 | O=C(O)CCCOc1cc(-c2ccccc2)nc2ccccc12 | 264
20 | CC(C#N)(COc1ccccc1C(F)(F)F)NC(=O)c1ccc(C(=O)c2ccccc2)cc1 (stereo not given) | 121 to 123
21 | CN(Cc1ccc(C(=O)Cn2cnc3cc(-c4ccc(Cl)cc4)sc3c2=O)cc1)C(=O)C(F)(F)F | 235 to 238
22 | N#Cc1ccc(-c2cncc(OC3SCC(O)C(O)C3O)c2)cc1C#N (stereo not given) | 192
23 | COc1ccc([N+](=O)[O-])cc1OCCO | 115
24 | CCCCc1noc(-c2ccc(C(=O)NCCC(C)(C)C)cc2)n1 | 95 to 97
25 | CCCCSc1cc(N)c([N+](=O)[O-])cc1N | 129
26 | COC(=O)CCC(=O)c1ccc(N)cc1 | 160 to 162
27 | Cc1cccc(NC(=O)NC2N=C(c3ccccc3F)c3ccccc3N(Cc3csc4ccccc34)C2=O)c1 (racemic) | 214 to 216
28 | COC(=O)c1ccc(OS(=O)(=O)C(F)(F)F)c(C23CC4CC(CC(C4)C2)C3)c1 | 95
29 | CCCCCCCCCCC1CN(O)C(=O)N1C (stereo not given) | 47 to 48
30 | Cc1cccc(-c2[nH]c(C(C)C)nc2-c2cccc(-c3ccc(F)cc3F)c2)n1 | 70 to 72
31 | CCN1CC(NC(=O)c2ccc(F)cc2)CN1CC | 114 to 116
32 | Cc1nnc(N2N=C(c3cc(C)c([N+](=O)[O-])c(C)c3)c3cc4c(cc3C[C@H]2C)OCO4)o1 | 132 to 133
33 | O=C(CCC(=O)N1CCC(c2ccc(Cl)cc2)CC1)c1ccc2c(c1)CCN(CC(=O)c1ccccc1)CC2 | 108 to 109
34 | COC(=O)[C@@H](C)Nc1ncccc1NC(=O)c1ccc(Cl)cc1 | 125 to 134

More lines, now with the values ahead:

Row | melting point [°C] | SMILES
35 | 198 to 200 | CCc1c(-c2ccc(OCc3ccccc3)cc2)c2c(C(=O)O)c(C(=O)O)c3c(OC)ccc1n32
36 | 99 to 101 | CC1(C)C(=O)N(Cc2ccccc2Cl)OC1Nc1ccccc1 (stereo not given)
37 | 152 | CC12CC(CCCCCO)C3c4ccc(O)cc4CCC3C1CCC2O (stereo not given)
38 | 139 to 140 | CN(C)C=Nc1c(Cl)cc(N=Cc2ccc(N(C)C)cc2Cl)cc1Cl
39 | 137 to 138 | Cc1ccccc1C(=O)Nc1ccc(Cl)c(C(=O)OC(C)C)c1
40 | 54 to 55 | Cc1cc(C)c(CON)c(C)c1
41 | 132 to 134 | CCOC(=O)CN1C(=O)c2cccc3c(Sc4ccccc4)ccc(c23)C1=O
42 | 139 to 142 | O=C(N(CCN(C(=O)C(F)(F)F)c1cccc2[nH]cc(Cl)c12)Cc1ccccc1)C(F)(F)F
43 | 238 to 240 | Cc1nc(-c2ccc(NC(=O)OCc3ccccc3)cc2)c[nH]c1=O
44 | 229 to 231 | O=C1c2cc3nnn(Cc4cnccn4)c(=O)c3cc2OC2CCCN12 (stereo not given)
45 | 143 to 144 | CCOC(=O)CNc1ncccc1NC(=O)c1cccc(Cl)c1
46 | 100 to 103 | CCOC(=O)N1CCN(c2nc(NC3CC3)ccc2[N+](=O)[O-])CC1
47 | 121 to 123 | COc1cc(Cl)ccc1C(=O)NCCc1nc(-c2ccncn2)cc(=O)n1C
48 | > 350 | O=c1cc2c3cccnc3sn2c2ccccc12
49 | 144 to 145 | COc1cccc(CC(=O)O)c1OCCCc1cn(-c2ccc(C#N)cn2)nc1C(C)C
50 | 171 to 173 | O=C(Nc1cc2ncc(CN3CCCC3)cc2cc1N1CCCC1)c1ccc(Br)cc1
51 | 260 to 262 | Cc1[nH]c(=O)ccc1-c1ccc(O)c([N+](=O)[O-])c1
52 | 164 to 166 | NC(=S)c1ccc(O)cc1O

Row | melting point [°C] | SMILES
53 | 87 to 88 | CCOC(=O)C(O)CCc1ccc(C(=O)CCc2nc(-c3ccccc3)oc2C)cc1 (stereo not given)
54 | 64 to 66 | N#CCCc1cccc(O)c1
55 | 121 to 123 | COc1ccc(C(=O)c2ccccc2-c2ccc(C#N)cc2)cc1
56 | 206 to 208 | CCC(C)(C)Nc1cccnc1N(C)C1CCN(C(=O)c2cc3cc([N+](=O)[O-])ccc3[nH]2)CC1
57 | 187 to 188 | COc1ccc(CNc2ncnc(Cl)c2N)cc1
58 | 93 to 94 | COc1ccccc1N1CCN(CC(O)COc2cc(C)c(OCc3ccccc3)c(C)c2)CC1 (stereo not given)
59 | 101 to 105 | CCCCC1(N(C)C)CCC(c2[nH]c3ccc(F)cc3c2C)(c2[nH]c3ccccc3c2C(COC(N)=O)c2ccccc2)CC1 (stereo not given)
60 | 125 to 127 | CCCCCC(=O)NCCCC(=NNC(N)=S)c1ccccc1
61 | 148 to 149 | c1ccc(CN2CCN(c3onc4c3CCc3ccccc3-4)CC2)cc1
62 | 182 to 183 | COC(=O)C(=Cc1c[nH]c2cc(C)ccc12)NC(C)=O
63 | 211 to 214 | Nc1ccc(C(=O)N2Cc3ccccc3Cc3cc(Cl)ccc32)cc1
64 | 173 to 175 | O=C(O)C(=O)c1ccc(C(=O)NCCOc2ccc3ccccc3c2)cc1
65 | 122 to 123 | Nc1nnc(-c2ccccc2Nc2cccc(C(F)(F)F)c2)s1
66 | 206 to 208 | CC(S)Cn1c(=O)[nH]c2ccccc2c1=O (stereo not given)
67 | 143 | CCCCN1C(=O)NC(Cc2ccccc2)C1=O (stereo not given)
68 | 105 to 110 | COc1cc(NC(=O)Nc2ccc3c(c2)CCN(C(=O)Nc2ccc(OCCO)cc2Cl)C3)cc(OC)c1
69 | 163 to 165 | CNC(=O)c1cnn(-c2cccc(Cl)c2)c1Cl
70 | 212 to 214 | COc1cccn2c(=O)c3c(nc12)C(=Cc1ccccc1)CC3
